# Data taken from ChEMBL document CHEMBL1201862, “PubChem BioAssay data set” (2004).
# Activity calls are given as the source filed them.
# Columns and labels:
# [1] = molecular target: T1, Kappa-type opioid receptor (Homo sapiens, UniProt P41145); test: SAR analysis of small molecule agonists of the kappa opioid receptor via a luminescent beta-arrestin assay - Set 3. [Related pubchem assays (depositor defined):AID1777, AID1785, AID1786, AID1966, AID2133, AID2136, AID2284, AID2500]; assay type: functional
# T1 sequence (P41145 whole entry): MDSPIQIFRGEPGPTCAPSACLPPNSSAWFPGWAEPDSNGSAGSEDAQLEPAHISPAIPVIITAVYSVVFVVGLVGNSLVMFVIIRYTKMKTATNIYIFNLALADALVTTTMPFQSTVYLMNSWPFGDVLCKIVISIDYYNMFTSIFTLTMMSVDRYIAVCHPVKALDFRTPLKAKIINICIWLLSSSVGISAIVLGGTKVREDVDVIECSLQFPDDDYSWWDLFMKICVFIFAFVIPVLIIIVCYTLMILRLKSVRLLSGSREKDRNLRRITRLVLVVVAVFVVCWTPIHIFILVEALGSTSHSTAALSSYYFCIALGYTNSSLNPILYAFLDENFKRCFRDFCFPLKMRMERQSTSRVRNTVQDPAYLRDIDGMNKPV
# [2] = molecular target: T1, Kappa-type opioid receptor; test: KOR agonist analogs, arrestin-GFP redistribution, SAR follow-up, imaging, image-based, set 3 (AID 488833); assay type: functional
# [3] = molecular target: Delta-type opioid receptor (Homo sapiens, UniProt P41143); test: SAR Analysis of Agonists of the DOR Receptor using an Image-Based Assay - Set 3. [Related pubchem assays (depositor defined):AID1777, AID1786]; assay type: functional
# Chain of Delta-type opioid receptor (P41143 whole entry): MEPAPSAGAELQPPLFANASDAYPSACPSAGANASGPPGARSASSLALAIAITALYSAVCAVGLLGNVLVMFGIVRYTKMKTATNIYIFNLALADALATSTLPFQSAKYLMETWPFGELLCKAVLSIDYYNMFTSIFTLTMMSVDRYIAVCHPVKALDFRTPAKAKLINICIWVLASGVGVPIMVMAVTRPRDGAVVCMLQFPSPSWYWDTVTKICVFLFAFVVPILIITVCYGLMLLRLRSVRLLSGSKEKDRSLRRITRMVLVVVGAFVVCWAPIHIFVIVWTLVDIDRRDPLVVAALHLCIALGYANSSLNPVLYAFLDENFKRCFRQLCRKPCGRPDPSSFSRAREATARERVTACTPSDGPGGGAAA
# Mu-type opioid receptor = Mu-type opioid receptor (Homo sapiens, UniProt P35372); test: SAR Analysis of Agonists of the MOR Receptor using an Image-Based Assay - Set 3. [Related pubchem assays (depositor defined):AID1777, AID1785, AID1786, AID1966, AID2133, AID2136, AID2284, AID2285, AID2352]; assay type: functional
# Chain of Mu-type opioid receptor (P35372 whole entry): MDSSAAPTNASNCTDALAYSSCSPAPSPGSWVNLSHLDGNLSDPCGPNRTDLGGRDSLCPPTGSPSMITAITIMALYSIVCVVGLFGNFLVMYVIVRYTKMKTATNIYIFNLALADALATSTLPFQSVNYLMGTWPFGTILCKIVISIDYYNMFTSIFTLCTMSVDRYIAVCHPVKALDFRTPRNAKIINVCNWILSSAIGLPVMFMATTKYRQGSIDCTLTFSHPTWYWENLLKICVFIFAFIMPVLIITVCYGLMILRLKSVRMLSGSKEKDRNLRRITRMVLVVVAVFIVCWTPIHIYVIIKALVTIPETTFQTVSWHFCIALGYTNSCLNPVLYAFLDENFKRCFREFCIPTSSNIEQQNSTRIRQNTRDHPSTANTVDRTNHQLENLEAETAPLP
# [4] = molecular target: T2, Mannose-6-phosphate isomerase (Homo sapiens, UniProt P34949); test: PMI enzyme inhibitors, confirmation, biochemical, fluorescence intensity (AID 1535)
# T2 sequence (P34949 whole entry): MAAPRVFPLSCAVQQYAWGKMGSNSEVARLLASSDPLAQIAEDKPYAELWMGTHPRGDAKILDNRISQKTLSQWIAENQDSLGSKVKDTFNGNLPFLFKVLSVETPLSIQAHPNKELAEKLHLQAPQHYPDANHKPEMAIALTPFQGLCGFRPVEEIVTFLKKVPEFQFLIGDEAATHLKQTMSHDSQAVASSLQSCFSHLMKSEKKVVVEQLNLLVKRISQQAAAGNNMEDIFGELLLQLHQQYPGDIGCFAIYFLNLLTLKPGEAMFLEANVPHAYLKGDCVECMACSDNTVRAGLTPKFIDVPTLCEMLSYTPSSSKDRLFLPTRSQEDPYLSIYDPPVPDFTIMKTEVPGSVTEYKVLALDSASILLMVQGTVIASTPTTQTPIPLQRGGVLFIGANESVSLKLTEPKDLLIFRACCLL
# Phosphomannomutase 2 = Phosphomannomutase 2 (Homo sapiens, UniProt O15305); test: Counter screen SAR assay for PMM2 inhibitors via a fluorescence intensity assay. [Related pubchem assays (depositor defined):AID1545, AID1574]
# Chain of Phosphomannomutase 2 (O15305 whole entry): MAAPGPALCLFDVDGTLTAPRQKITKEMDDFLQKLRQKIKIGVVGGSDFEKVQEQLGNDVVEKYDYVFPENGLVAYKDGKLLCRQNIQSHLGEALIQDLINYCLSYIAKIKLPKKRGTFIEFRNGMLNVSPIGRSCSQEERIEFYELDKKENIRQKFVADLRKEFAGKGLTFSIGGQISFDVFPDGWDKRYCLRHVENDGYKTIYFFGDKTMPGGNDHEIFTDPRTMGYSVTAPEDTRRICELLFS
# [5] = molecular target: Phosphoethanolamine/phosphocholine phosphatase (Homo sapiens, UniProt Q8TCT1); test: SAR assay for compounds that inhibit PHOSPHO1. [Related pubchem assays (depositor defined):AID1545, AID1565, AID1574]
# Chain of Phosphoethanolamine/phosphocholine phosphatase (Q8TCT1 whole entry): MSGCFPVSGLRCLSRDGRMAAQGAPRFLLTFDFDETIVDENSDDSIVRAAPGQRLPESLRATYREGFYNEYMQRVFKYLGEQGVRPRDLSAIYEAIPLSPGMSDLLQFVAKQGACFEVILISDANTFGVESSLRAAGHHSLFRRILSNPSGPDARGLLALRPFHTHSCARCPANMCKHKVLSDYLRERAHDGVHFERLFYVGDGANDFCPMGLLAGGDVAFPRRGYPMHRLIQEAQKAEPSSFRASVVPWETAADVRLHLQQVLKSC
# [6] = growth suppression of PTEN-null colon cells, dose response, cell-based, HCT116 PTEN knockout (AID 1047); assay type: functional;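 also: HCT116 colon tumor cells with PTEN knocked out; cells exposed to compound for 60 hours before readout; potency for loss of cell viability measured by luminescence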
# [7] = molecular target: T3, Replicative DNA helicase DnaB (Mycobacterium tuberculosis, UniProt P9WMR3); test: DnaB intein splicing inhibitors, dose response, biochemical, cell-free fluorescence (AID 449749); assay type: functional
# T3 sequence (P9WMR3 whole entry): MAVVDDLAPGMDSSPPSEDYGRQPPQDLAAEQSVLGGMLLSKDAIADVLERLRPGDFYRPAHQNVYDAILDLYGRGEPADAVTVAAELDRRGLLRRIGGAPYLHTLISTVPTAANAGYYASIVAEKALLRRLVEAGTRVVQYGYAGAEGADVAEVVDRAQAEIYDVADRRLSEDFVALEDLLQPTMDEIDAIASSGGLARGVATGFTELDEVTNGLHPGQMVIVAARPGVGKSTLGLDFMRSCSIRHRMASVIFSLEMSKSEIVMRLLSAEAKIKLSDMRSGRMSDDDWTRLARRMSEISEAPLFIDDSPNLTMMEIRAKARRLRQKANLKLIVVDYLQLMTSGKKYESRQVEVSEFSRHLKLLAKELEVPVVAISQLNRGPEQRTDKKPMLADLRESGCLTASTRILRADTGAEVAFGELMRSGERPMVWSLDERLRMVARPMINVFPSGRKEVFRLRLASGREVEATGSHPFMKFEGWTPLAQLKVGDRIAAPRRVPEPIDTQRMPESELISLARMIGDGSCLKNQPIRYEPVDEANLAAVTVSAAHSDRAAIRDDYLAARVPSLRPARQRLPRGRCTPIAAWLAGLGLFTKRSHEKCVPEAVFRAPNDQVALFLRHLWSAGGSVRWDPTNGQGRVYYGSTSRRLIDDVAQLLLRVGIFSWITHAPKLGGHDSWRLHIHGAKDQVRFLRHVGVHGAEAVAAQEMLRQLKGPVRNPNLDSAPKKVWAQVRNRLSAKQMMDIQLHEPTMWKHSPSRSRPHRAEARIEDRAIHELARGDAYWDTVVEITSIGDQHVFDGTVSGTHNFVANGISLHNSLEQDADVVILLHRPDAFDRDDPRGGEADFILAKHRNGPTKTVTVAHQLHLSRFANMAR
# CAAX prenyl protease 2 [8] = molecular target: T4, CAAX prenyl protease 2 (Homo sapiens, UniProt Q9Y256); test: human Rce1 protease inhibitors, dose response, biochemical, yeast membranes, quenched-peptide fluorescence, cherry-pick (AID 588849)
# T4 sequence (Q9Y256 whole entry): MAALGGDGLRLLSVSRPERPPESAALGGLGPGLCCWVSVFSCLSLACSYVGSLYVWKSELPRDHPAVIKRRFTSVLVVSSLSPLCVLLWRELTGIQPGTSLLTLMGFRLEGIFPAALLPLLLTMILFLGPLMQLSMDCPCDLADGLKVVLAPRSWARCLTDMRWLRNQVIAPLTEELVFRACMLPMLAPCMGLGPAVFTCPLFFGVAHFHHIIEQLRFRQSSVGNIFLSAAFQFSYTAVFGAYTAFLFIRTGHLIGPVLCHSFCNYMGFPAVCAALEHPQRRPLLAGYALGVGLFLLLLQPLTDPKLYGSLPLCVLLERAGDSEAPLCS
# Protein RecA = molecular target: T5, Protein RecA (Mycobacterium tuberculosis, UniProt P9WHJ3); test: Fluorescence Cell-Free Homogeneous Dose Retest to Identify Inhibitors of RecA-Intein Splicing Activity. [Related pubchem assays (depositor defined):AID2097, AID2223, AID489010, AID492950]; assay type: functional
# T5 sequence (P9WHJ3 whole entry): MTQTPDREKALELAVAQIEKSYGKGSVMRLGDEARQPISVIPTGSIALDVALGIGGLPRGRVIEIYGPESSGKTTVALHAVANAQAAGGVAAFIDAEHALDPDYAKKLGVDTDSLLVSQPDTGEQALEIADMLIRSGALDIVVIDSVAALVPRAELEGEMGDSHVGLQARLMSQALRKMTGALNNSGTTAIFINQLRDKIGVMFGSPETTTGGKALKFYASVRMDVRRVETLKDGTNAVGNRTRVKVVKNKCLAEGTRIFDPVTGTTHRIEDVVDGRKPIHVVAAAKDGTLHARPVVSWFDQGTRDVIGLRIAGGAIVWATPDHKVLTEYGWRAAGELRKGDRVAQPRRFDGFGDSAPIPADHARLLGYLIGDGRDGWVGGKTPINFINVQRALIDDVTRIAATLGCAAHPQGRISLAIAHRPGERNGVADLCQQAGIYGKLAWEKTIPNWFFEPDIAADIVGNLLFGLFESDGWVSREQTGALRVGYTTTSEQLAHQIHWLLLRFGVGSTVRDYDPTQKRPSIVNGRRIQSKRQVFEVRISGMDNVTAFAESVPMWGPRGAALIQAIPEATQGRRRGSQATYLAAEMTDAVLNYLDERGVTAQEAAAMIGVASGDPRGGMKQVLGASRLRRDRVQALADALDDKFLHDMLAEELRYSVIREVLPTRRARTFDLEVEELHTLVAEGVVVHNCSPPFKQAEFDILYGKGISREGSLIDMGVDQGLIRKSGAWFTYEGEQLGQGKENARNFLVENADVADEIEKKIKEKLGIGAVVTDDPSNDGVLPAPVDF
# Integrin alpha-4 = Integrin alpha-4 (Homo sapiens, UniProt P13612); test: VLA-4 integrin allosteric ligands, SAR follow-up, cell-based, LIBS antibody binding, flow cytometry (AID 488791); assay type: functional
# Chain of Integrin alpha-4 (P13612 whole entry): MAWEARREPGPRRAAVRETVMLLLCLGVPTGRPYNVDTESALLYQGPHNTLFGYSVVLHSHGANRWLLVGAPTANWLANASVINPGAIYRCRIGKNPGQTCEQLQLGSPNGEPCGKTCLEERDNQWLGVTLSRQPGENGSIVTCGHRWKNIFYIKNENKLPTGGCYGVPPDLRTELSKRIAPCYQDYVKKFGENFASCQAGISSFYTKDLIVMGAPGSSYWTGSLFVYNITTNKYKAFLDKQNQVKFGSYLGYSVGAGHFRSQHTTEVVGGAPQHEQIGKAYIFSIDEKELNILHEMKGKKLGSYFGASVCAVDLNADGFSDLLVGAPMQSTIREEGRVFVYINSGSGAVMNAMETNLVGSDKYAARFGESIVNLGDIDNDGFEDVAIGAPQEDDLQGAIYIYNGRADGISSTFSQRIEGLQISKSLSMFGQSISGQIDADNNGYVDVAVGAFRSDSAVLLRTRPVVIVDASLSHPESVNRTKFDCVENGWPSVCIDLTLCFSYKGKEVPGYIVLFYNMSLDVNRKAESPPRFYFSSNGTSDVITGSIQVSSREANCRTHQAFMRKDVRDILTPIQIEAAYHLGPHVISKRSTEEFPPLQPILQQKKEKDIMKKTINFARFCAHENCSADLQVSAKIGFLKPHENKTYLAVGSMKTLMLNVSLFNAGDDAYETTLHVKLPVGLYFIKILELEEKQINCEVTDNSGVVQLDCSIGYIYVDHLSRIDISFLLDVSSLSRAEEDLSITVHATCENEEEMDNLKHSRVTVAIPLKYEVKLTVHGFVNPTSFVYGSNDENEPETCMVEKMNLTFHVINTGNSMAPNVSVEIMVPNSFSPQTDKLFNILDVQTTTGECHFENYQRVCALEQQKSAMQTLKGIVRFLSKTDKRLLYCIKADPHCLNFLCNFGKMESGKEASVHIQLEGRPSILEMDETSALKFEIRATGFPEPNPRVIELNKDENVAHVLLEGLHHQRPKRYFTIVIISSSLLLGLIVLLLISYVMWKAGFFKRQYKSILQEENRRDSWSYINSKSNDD
# CAAX prenyl protease 2 [9] = molecular target: T6, CAAX prenyl protease 2 (Saccharomyces cerevisiae S288c, UniProt Q03530); assay type: biochemical
# T6 sequence (Q03530 whole entry): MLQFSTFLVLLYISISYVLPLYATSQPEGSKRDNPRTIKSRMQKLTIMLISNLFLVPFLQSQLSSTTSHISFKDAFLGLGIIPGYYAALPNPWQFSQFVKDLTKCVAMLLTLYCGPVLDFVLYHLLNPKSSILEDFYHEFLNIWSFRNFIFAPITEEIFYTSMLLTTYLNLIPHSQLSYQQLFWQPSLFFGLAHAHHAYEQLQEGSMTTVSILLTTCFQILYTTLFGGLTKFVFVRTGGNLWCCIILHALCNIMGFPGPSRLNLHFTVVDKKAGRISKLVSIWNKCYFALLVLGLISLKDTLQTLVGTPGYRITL
# [10] = mammalian cell cytotoxicity, dose response, cytotoxicity control, plate reader, cherry-pick samples (AID 504397); assay type: functional, cell-based
# [11] = molecular target: G-protein coupled receptor 35 (Homo sapiens, UniProt Q9HC97); test: GPR35 antagonists blocking zaprinast-driven arrestin recruitment, primary screen, imaging, U2OS, beta-arrestin-GFP, zaprinast agonist (AID 2058); assay type: functional;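 also: antagonist potency meaning inhibition of agonist-induced arrestin redistribution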
# Chain of G-protein coupled receptor 35 (Q9HC97 whole entry): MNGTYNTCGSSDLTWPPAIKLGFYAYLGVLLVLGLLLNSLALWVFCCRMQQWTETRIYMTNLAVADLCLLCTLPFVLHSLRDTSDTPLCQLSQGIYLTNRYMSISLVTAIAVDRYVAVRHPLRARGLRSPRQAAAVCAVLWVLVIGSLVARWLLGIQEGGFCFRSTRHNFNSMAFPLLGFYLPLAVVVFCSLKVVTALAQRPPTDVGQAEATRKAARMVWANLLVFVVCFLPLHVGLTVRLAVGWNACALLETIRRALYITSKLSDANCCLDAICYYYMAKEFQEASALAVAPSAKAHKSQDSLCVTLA
# [12] = growth suppression of beta-catenin-knockout colon cells, dose response, cell-based, HCT116, human colon tumor (AID 1045); assay type: functional;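 also: HCT116 colon tumor cells with beta catenin knocked out; cells exposed to compound for 60 hours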
# [13] = molecular target: G-protein coupled receptor 55 (Homo sapiens, UniProt Q9Y2T6); test: GPR55 antagonists blocking LPI-driven arrestin recruitment, primary screen, imaging, U2OS, beta-arrestin-GFP, LPI agonist (AID 2013); assay type: functional;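 also: antagonist potency measured as reduced agonist-driven arrestin aggregation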
# Chain of G-protein coupled receptor 55 (Q9Y2T6 whole entry, the tested form may be a part): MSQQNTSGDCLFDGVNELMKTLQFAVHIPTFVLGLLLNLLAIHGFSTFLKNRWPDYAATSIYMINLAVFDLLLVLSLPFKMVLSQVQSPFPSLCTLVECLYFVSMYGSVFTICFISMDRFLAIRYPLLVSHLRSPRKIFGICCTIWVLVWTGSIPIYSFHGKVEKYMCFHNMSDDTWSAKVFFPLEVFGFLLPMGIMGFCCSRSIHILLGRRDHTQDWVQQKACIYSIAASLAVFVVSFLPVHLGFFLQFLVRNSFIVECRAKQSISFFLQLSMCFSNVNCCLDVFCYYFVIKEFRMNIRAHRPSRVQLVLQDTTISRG
# [14] = molecular target: Nucleotide-binding oligomerization domain-containing protein 1 (Homo sapiens, UniProt Q9Y239); test: NOD1 signaling inhibitors, SAR follow-up, revised (AID 2333); assay type: functional
# Chain of Nucleotide-binding oligomerization domain-containing protein 1 (Q9Y239 whole entry, the tested form may be a part): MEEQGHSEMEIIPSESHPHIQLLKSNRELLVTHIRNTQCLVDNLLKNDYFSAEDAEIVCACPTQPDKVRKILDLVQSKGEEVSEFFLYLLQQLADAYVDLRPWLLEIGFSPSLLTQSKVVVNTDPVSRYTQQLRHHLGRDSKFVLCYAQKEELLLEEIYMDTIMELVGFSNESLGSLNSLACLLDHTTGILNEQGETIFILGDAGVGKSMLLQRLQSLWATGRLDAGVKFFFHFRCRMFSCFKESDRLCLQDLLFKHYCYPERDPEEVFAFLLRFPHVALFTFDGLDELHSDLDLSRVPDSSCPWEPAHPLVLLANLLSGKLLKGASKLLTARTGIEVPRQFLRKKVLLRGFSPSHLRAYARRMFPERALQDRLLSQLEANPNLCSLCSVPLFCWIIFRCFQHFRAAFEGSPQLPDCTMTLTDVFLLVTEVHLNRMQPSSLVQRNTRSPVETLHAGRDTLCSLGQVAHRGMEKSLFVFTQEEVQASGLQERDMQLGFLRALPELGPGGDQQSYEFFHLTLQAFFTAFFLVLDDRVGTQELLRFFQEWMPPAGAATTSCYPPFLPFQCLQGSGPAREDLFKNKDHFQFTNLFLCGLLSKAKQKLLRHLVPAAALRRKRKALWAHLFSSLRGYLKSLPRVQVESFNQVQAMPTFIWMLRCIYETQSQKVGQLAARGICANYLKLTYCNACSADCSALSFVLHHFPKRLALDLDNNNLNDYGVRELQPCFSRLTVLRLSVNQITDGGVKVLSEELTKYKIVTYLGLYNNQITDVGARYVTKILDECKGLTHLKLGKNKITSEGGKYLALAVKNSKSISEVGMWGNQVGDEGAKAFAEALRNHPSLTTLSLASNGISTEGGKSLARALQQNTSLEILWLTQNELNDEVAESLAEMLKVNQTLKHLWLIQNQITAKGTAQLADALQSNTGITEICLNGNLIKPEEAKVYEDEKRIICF
# HEK293 = test: cells; conditions: Homo sapiens;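 also: cells exposed to compound for 14 hours overnight before viability readout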
# Tumor necrosis factor = Tumor necrosis factor (Homo sapiens, UniProt P01375); test: TNFa-triggered NF-kB activation inhibitors, SAR follow-up, cell-based, revised (AID 2337); assay type: functional
# Chain of Tumor necrosis factor (P01375 whole entry): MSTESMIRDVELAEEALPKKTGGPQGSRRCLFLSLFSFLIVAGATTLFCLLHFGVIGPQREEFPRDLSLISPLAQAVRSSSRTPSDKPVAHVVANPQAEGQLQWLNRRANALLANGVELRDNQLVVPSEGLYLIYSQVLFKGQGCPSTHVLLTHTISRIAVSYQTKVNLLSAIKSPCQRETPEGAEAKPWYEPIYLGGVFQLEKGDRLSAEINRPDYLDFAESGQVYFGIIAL
smiles,measurement,setting,value
COC(=O)c1ccc(CSc2nnc(-c3ccccn3)n2Cc2ccco2)cc1,EC50,[1],6.62 µM (active)
same,EC50,[2],18.7 µM (inactive)
same,EC50,[3],> 64 µM (inactive)
same,EC50,Mu-type opioid receptor,> 32 µM (inactive)
CCN(CC)CCOC(=O)c1ccc(-n2sc3ccccc3c2=O)cc1,IC50,[4],24.1 µM (active)
same,IC50,Phosphomannomutase 2,26.9 µM (active)
same,IC50,[5],0.755 µM (active)
CC(NC(=O)/C(C#N)=C/c1ccc(Cl)c([N+](=O)[O-])c1)c1ccccc1 (stereo not given),EC50,[6],17.8 µM (active)
same,AC50,[7],4.02 µM (active)
same,AC50,CAAX prenyl protease 2 [8],8.59 µM (active)
same,EC50,Protein RecA,5.2 µM (active)
same,EC50,Integrin alpha-4,2.42 µM (active)
same,AC50,CAAX prenyl protease 2 [9],2.44 µM (active)
same,AC50,[10],18.2 µM (active)
same,IC50,[11],2.53 µM (active)
same,EC50,[12],13.5 µM (active)
same,IC50,[13],8.95 µM (active)
CC(=O)N1c2ccc(S(=O)(=O)N3CCN(c4ccc(C)cc4)CC3)cc2CC1C (stereo not given),IC50,[14],5.76 µM (active)
same,IC50,HEK293,> 20 µM (inactive)
same,IC50,Tumor necrosis factor,4.32 µM (active)
